Measurements published in US12517131B2, “Methods for labeling eukaryotic cells from a multicellular organism as well as for treating and/or diagnosing a cancer using modified monosaccharide compounds” (DIAMIDEX, priority 2019, dated 2026).

Assays:
A375 (vs PIG) = assay: Labeling of cancer and non-cancer cells, fluorescence signal ratio; assay type: cell-based, human; details: A375 (26 h) vs PIG (26 h); Ara-N3 10 mM; FBS 10%; one doubling time
Protocol: (§1) The fluorescence Assimilation of Ara-N3 probes was visualized by copper-free click chemistry using sulfo-DBCO-biotin (1 mM), followed by labeling with a mouse anti-biotin Alexa Fluor 488 antibody conjugate (0.62 mg/ml stock, Jackson ImmunoResearch, dilution 1/10). The click reaction was carry-out as following: At 24 h incubation times, the culture mediums were removed, and attached cells were washed twice with PBS. Cells were detached with Tryp-LE, washed twice with PBS, and centrifuged at 13000 g for 2 min. The cellular pellets were resuspended with 10 μL of sulfo-DBCO-biotin and incubated 30 min in the dark, and at 37 C°. Then, cells were washed twice with PBS, centrifuged, and cellular pellets were resuspended with 10 μL of a mouse anti-biotin antibody solution, before to be incubated at room temperature in dark. Thereafter, cells were washed twice with PBS and small cellular suspension spots (5 μL) were put in Polysine® adhesion slides (VWR international S.A.S), in the dark room, until dry (20 min). The spots were fixed with 4% paraformaldehyde during 20 min, in dark and room temperature. Slides were then washed twice with PBS, before recovering with square cover glasses (VWR international S.A.S) using glycerol Mounting Medium (Dako) and stored at 4° C. in dark room.
(§2) The fluorescence acquisition was recorded using Olympus Microscopy IX83 (Olympus Life Science) equipped with a 60×/1.3 […]/1.4 SRI (silicone refractive index) objective, and Hamamatsu oreca flash 4 LT camera with 109 nm/pixel calibrated pixel size. The excitation light was emitted by X-CITE 120LED using the AT180/30X excited filter and signal was monitored using AT535/40m emission filter. Green light exposition time was 600 ms and white light exposition time was determined by DIC methods at […]. The acquisition area size analyzed by the Celisens dimension V1.16 software was different depending on the cell number containing in the spot.
(§3) The images were processed using count and measure unit of the Cellsens dimension V1.16 software. The background noise was deleted as follows: ROI were first defined on the background of the image and the average pixel intensity was calculated. The value thus obtained was subtracted from all pixels of the image. The fluorescence intensity of each cell was determined from a threshold set at a value of 3030. All pixels that have intensity below 3030 were not counted.
(§4) The same experiments as in example 2 with other cancer and corresponding non cancer cells were performed. The culture media were adapted to the tested cells and supplemented by 10% fetal bovine serum (FBS). Ara-N3 probe (10 mM) was added to culture media with FBS concentration (10%). The incubation times corresponded to one doubling time or twice doubling time of the tested cells (see table below).
(§5) The fluorescence signal cancer/non cancer ratios were calculated based on fluorescence intensities obtained with Ara-N3 tested on cancer and corresponding non cancer cells.

HL-60 (vs Lymphocytes T) = assay: as above; assay type: cell-based, human; details: HL-60 (28 h) vs Lymphocytes T (24 h); Ara-N3 10 mM; FBS 10%; one doubling time
Protocol: as §1, §2, §3, §4, §5

NAMALWA (vs B12-F8) = assay: as above; assay type: cell-based, human; details: NAMALWA (20 h) vs B12-F8 (24 h); Ara-N3 10 mM; FBS 10%; one doubling time
Protocol: as §1, §2, §3, §4, §5

[1] = test system: THP1 (vs Monocytes/Macrophages); assay: as above; assay type: cell-based, human; details: THP1 (26 h) vs Monocytes/Macrophages (26 h); Ara-N3 10 mM; FBS 10%; one doubling time
Protocol: as §1, §2, §3, §4, §5

[2] = test system: A431 (tumoral cell lines); assay: In vitro cytotoxicity of Ara-N3 probe (Annexin V/IP, MTS); assay type: cell-based, human; details: tested 1, 10, 50 and 100 mM, 24 h and 48 h
Protocol: (§6) The cell lines (as detailed below in the table) were provided by Inserm/Aquiderm transfer cell. Cell culture of cell lines and cell cytoxicity tests were also carried out by Aquiderm transfer cell, in the laboratory of INSERM U1035.
(§7) The cells were cultivated in an oven at 37° C., 5% CO2 and 95% humidity, in different culture media: • either in RPMI 1640 medium supplemented with 10% of decomplemented FCS (Fetal calf serum) and antibiotics penicillin (100 IU/ml) and […] (100 μg/ml), for the pair Monocytes/THP1. • either in DMEM medium supplemented with 10% of decomplemented FCS and antibiotics penicillin (100 IU/ml) and […] (100 μg/ml) for the Hacat/A431 couple.
(§8) All the cells were seeded in culture plates, either in 96 wells at the density of 1*10^4 cells/well for the MTS proliferation test, either in 24 wells at the density of 5*10^4 cells/well for the Annexin V test/IP test. Then the cells were incubated at 37° C. and 5% CO2 for 24 hours. After 24 hours, the culture medium was changed in all the wells and the cells adhered to the bottom of the wells were rinsed twice in PBS (Eurobio) or centrifuged and washed twice in PBS for the cells in suspension, before being exposed to the Ara-N3 probe at different concentrations: 1, 10, 50 and 100 mM. The cells were incubated at 37° C. and 5% CO2 for 48 hours.
(§9) This test requires the use of an Annexin V-APC kit (Biolegend) for the detection of apoptosis/necrosis. This test uses the ability of Annexin V to bind to membrane phosphatidylserines (PS) and the intercalating properties of propidium iodide (PI) on DNA.
(§10) Briefly, after incubation of the cells with the Ara-N3 probe at different concentrations and at different times (24 h and 48 h), the cells were recovered, trypsinized (for adherent cells) and washed in PBS. After counting in trypan blue on the Malassez cell, the cells were incubated in a labeling buffer (100 μL) in the presence of Annexin V-APC (5 μL) and of IP (10 μL) for 15 minutes at room temperature and in the dark. They were then directly analyzed by cytometry after adding 100 μL of labeling buffer. […]

[3] = test system: HACAT (immortalized cell lines); assay: as above; assay type: cell-based, human; details: tested 1, 10, 50 and 100 mM, 24 h and 48 h
Protocol: as §6, §7, §8, §9, §10

[4] = test system: THP1 (tumoral cell lines); assay: as above; assay type: cell-based, human; details: tested 1, 10, 50 and 100 mM, 24 h and 48 h
Protocol: as §6, §7, §8, §9, §10

[5] = In vivo non-toxicity of Ara-N3 in nude mice; parameters: species or system NMRI nude mice
Protocol: Ten Female NMRI nude mice (6 weeks old, Janvier, Le Genest-Saint Isle, France) were enrolled in this assay. Three were injected intravenously every other day for 8 days (4 injections) with 50 mg/mouse/injection of Ara-N3 for 200 mg cumulative dose, and three other mice were treated for 8 days with 50 mg of Ara-N3 in 8 mL of water consumed per day, for 400 mg cumulative dose. As control groups, four tumor-bearing mice were not treated.
Mice were euthanized and dissected at the end of treatment. Heart, lung, brain, uterus, ovaries, kidney, skeletal muscle, spleen, pancreas, abdominal fat, liver, skin, stomach, colon, caecum, small intestine, mesenteric lymph nodes, axillary lymph nodes, brachial lymph nodes and total blood were harvested and frozen for analyses.

In the case of `[N-]=[N+]=NC[C@H]1OC(O)[C@@H](O)[C@@H]1O` (stereo partly drawn) [Ara-N3, 5-azido-5-deoxy-D-arabinofuranose], the “Cancer/Non Cancer Ratio (fluorescence signal)” value (shortened to “Cancer/Non Cancer Ratio”) (A375 (vs PIG)) is reported as 3.5, the “Cancer/Non Cancer Ratio” value (HL-60 (vs Lymphocytes T)) is reported as 1.6 and the “Cancer/Non Cancer Ratio” value (NAMALWA (vs B12-F8)) is reported as 2.3. The “Cancer/Non Cancer Ratio” value [1] was 19.5, the “Non-toxic concentration of Ara-N3” value [2] was >10 mM and the “Non-toxic concentration of Ara-N3” value [3] was >10 mM. For the same molecule, the “Non-toxic concentration of Ara-N3” value [4] was >10 mM, the “water consumption of the mice” value ([5]; Ara-N3 in drinking water up to 6.25 mg/mL, 8 days) was “did not alter the water consumption” and the “Non-toxic concentration of Ara-N3” value ([5]; In vivo, Nude mouse (mice)) was >1 mM. The body weight loss ([5]; in drinking water, 50 mg in 8 mL per day for 8 days, 400 mg cumulative dose) was “did not induce any body weight loss” and the body weight loss ([5]; intravenous injections, 50 mg/mouse/injection every other day for 8 days, 200 mg cumulative dose) was “did not induce any body weight loss”.
